One assay concerns ATCC strain 700825. Description: MICs against ATCC strain 700825. Type of assay: cell-based, N. gonorrhoeae. The conditions noted are these: Neisseria gonorrhoeae. On the procedure:
(§1) These tests were performed in normal culture conditions with standard CO2 levels and in CO2 (5% in incubator) conditions.

For assay [1], the system named is N. gonorrhoeae. Description: MIC against N. gonorrhoeae clinical isolates, normal and CO2 conditions. The format is cell-based. The conditions noted are these: Neisseria gonorrhoeae. On the procedure:
as §1

Assay [2] has as its system N. gonorrhoeae. Nature of the assay: Multi-step resistance selection. Type of assay: cell-based. The conditions noted are these: after 9 passages. The text has this: Frequency of mutation—multi-step mutation—We investigated N. gonorrhoeae's ability to develop resistance to CAIs using the multi-step resistance selection experiment^58.
N. gonorrhoeae cultures that grew at the highest concentrations of the compound are used as an inoculum for the subsequent culture.

[3] abbreviates: N. gonorrhoeae 178, Non CO2 environment.
The mark [4] stands for this setting: N. gonorrhoeae 178, normal growth environment (with CO2).
The mark [5] stands for this setting: N. gonorrhoeae 181, Non CO2 environment.
[6] abbreviates: N. gonorrhoeae 181, normal growth environment (with CO2).
[7] abbreviates: N. gonorrhoeae 194, Non CO2 environment.
Setting [8] is: N. gonorrhoeae 194, normal growth environment (with CO2).

From patent publication US20220213047A1, “CARBONIC ANHYDRASE INHIBITORS FOR TREATMENT OF NEISSERIA GONORRHOEAE INFECTION” (Purdue Research Foundation, priority 2021, published 2022) come the findings set out here.

Converted amounts (≈) assume the structure as drawn. Some results are limits rather than exact numbers.

In general, MIC refers to the lowest concentration found to suppress growth. Read a low MIC as inhibition by little substance. With `NS(=O)(=O)c1nnc(NC(=O)CCc2ccccc2)s1` [CAI 0041], the MIC with ATCC strain 700825 (ATCC700825, In CO2) worked out at 4 µg/mL (≈ 12.8 µM); with ATCC strain 700825 (ATCC700825, In air), 0.5 µg/mL (≈ 1.6 µM).
Regarding `Nc1nnc(S(N)(=O)=O)s1` [CAI 0034], the MIC against N. gonorrhoeae [1] (setting [3]) is 1 µg/mL (≈ 5.55 µM); in the assay on N. gonorrhoeae [1] (setting [4]) it was more than 64 µg/mL; against N. gonorrhoeae [1] (setting [5]) it was 4 µg/mL (≈ 22.2 µM); against N. gonorrhoeae [1] (setting [6]) it was more than 64 µg/mL; against N. gonorrhoeae [1] (setting [7]), 2 µg/mL (≈ 11.1 µM); against N. gonorrhoeae [1] (setting [8]), more than 64 µg/mL.
Regarding `O=C(O)c1cn(C2CC2)c2cc(N3CCNCC3)c(F)cc2c1=O` [Ciprofloxacin], the “increase in MIC” value in the assay with N. gonorrhoeae [2] was found to be 300 fold.
`NS(=O)(=O)c1nnc(NC(=O)C2CCCC2)s1` [CAI 0023]: the MIC in the assay with N. gonorrhoeae [1] (setting [3]) was determined as 8 µg/mL (≈ 28.9 µM); in the assay with N. gonorrhoeae [1] (setting [4]) it was 32 µg/mL (≈ 116 µM); in the assay on N. gonorrhoeae [1] (setting [5]) it was 8 µg/mL (≈ 28.9 µM); in the assay on N. gonorrhoeae [1] (setting [6]) it was 64 µg/mL (≈ 232 µM); in the assay with N. gonorrhoeae [1] (setting [7]), 8 µg/mL (≈ 28.9 µM); in the assay with N. gonorrhoeae [1] (setting [8]), 64 µg/mL (≈ 232 µM).
Take `CC(C)(C)C(=O)Nc1nnc(S(N)(=O)=O)s1` [CAI 0010]: the MIC is 32 µg/mL (≈ 121 µM) against N. gonorrhoeae [1] (setting [3]); 32 µg/mL (≈ 121 µM) against N. gonorrhoeae [1] (setting [4]); 32 µg/mL (≈ 121 µM) against N. gonorrhoeae [1] (setting [5]); more than 64 µg/mL in the assay with N. gonorrhoeae [1] (setting [6]); 32 µg/mL (≈ 121 µM) in the assay on N. gonorrhoeae [1] (setting [7]); 64 µg/mL (≈ 242 µM) in the assay with N. gonorrhoeae [1] (setting [8]).
As for `CC(C)CC(=O)Nc1nnc(S(N)(=O)=O)s1` [CAI 0026], the MIC in the assay on N. gonorrhoeae [1] (setting [3]) is 8 µg/mL (≈ 30.3 µM); against N. gonorrhoeae [1] (setting [4]), 32 µg/mL (≈ 121 µM); with N. gonorrhoeae [1] (setting [5]), 8 µg/mL (≈ 30.3 µM); in the assay with N. gonorrhoeae [1] (setting [6]) it was more than 64 µg/mL; in the assay on N. gonorrhoeae [1] (setting [7]) it was 4 µg/mL (≈ 15.1 µM); in the assay with N. gonorrhoeae [1] (setting [8]) it was more than 64 µg/mL.
As for `NS(=O)(=O)c1nnc(NC(=O)C2CCCCC2)s1` [CAI 0022], the MIC is 4 µg/mL (≈ 13.8 µM) against N. gonorrhoeae [1] (setting [3]); 32 µg/mL (≈ 110 µM) against N. gonorrhoeae [1] (setting [4]); 2 µg/mL (≈ 6.89 µM) in the assay with N. gonorrhoeae [1] (setting [5]); 64 µg/mL (≈ 220 µM) in the assay on N. gonorrhoeae [1] (setting [6]); 4 µg/mL (≈ 13.8 µM) in the assay on N. gonorrhoeae [1] (setting [7]); more than 64 µg/mL in the assay on N. gonorrhoeae [1] (setting [8]).
As for `CCN[C@H]1CN(CCCOC)S(=O)(=O)c2sc(S(N)(=O)=O)cc21` [Brinzolamide], the MIC in the assay on N. gonorrhoeae [1] (setting [3]), with N. gonorrhoeae [1] (setting [4]), against N. gonorrhoeae [1] (setting [5]), in the assay with N. gonorrhoeae [1] (setting [6]), against N. gonorrhoeae [1] (setting [7]) and in the assay with N. gonorrhoeae [1] (setting [8]) was more than 64 µg/mL in each case.
On to `NS(=O)(=O)c1nnc(NC(=O)C2CC2)s1` [CAI 0020], for which the MIC in the assay with N. gonorrhoeae [1] (setting [3]) was 2 µg/mL (≈ 8.06 µM); with N. gonorrhoeae [1] (setting [4]), 64 µg/mL (≈ 258 µM); in the assay on N. gonorrhoeae [1] (setting [5]), 2 µg/mL (≈ 8.06 µM); against N. gonorrhoeae [1] (setting [6]), 64 µg/mL (≈ 258 µM); in the assay with N. gonorrhoeae [1] (setting [7]) it was 4 µg/mL (≈ 16.1 µM); against N. gonorrhoeae [1] (setting [8]) it was more than 64 µg/mL.
Turning to `NS(=O)(=O)c1nnc(NC(=O)CC2CCCCC2)s1` [CAI 0029], the MIC was 1 µg/mL (≈ 3.29 µM) in the assay on N. gonorrhoeae [1] (setting [3]); 32 µg/mL (≈ 105 µM) against N. gonorrhoeae [1] (setting [4]); 0.5 µg/mL (≈ 1.64 µM) with N. gonorrhoeae [1] (setting [5]); more than 64 µg/mL in the assay with N. gonorrhoeae [1] (setting [6]); 2 µg/mL (≈ 6.57 µM) in the assay on N. gonorrhoeae [1] (setting [7]); more than 64 µg/mL in the assay on N. gonorrhoeae [1] (setting [8]).
On to `CCNc1nnc(S(N)(=O)=O)s1` [CAI 0032], for which the MIC is 64 µg/mL (≈ 307 µM) against N. gonorrhoeae [1] (setting [3]); more than 64 µg/mL with N. gonorrhoeae [1] (setting [4]); more than 64 µg/mL against N. gonorrhoeae [1] (setting [5]); more than 64 µg/mL against N. gonorrhoeae [1] (setting [6]); more than 64 µg/mL in the assay with N. gonorrhoeae [1] (setting [7]); more than 64 µg/mL in the assay on N. gonorrhoeae [1] (setting [8]).
For the molecule `NS(=O)(=O)c1nnc(NC(=O)C2CCC2)s1` [CAI 0018], the minimum inhibitory concentration (MIC) against N. gonorrhoeae [1] (setting [3]) was 16 µg/mL (≈ 61 µM); against N. gonorrhoeae [1] (setting [4]), 64 µg/mL (≈ 244 µM); in the assay on N. gonorrhoeae [1] (setting [5]), 16 µg/mL (≈ 61 µM); with N. gonorrhoeae [1] (setting [6]), more than 64 µg/mL; against N. gonorrhoeae [1] (setting [7]), 8 µg/mL (≈ 30.5 µM); in the assay with N. gonorrhoeae [1] (setting [8]), 32 µg/mL (≈ 122 µM).
In the case of `NS(=O)(=O)c1nnc(NC(=O)CC2CCCC2)s1` [CAI 0021], the MIC in the assay with N. gonorrhoeae [1] (setting [3]) is 2 µg/mL (≈ 6.89 µM); with N. gonorrhoeae [1] (setting [4]) it was 64 µg/mL (≈ 220 µM); with N. gonorrhoeae [1] (setting [5]) it was 1 µg/mL (≈ 3.44 µM); against N. gonorrhoeae [1] (setting [6]), more than 64 µg/mL; with N. gonorrhoeae [1] (setting [7]), 4 µg/mL (≈ 13.8 µM); with N. gonorrhoeae [1] (setting [8]), more than 64 µg/mL.
With `CCCC(=O)Nc1nnc(S(N)(=O)=O)s1` [CAI 0013], the MIC against N. gonorrhoeae [1] (setting [4]) stood at 8 µg/mL (≈ 32 µM); with N. gonorrhoeae [1] (setting [5]) it was 8 µg/mL (≈ 32 µM); against N. gonorrhoeae [1] (setting [6]) it was 32 µg/mL (≈ 128 µM); in the assay with N. gonorrhoeae [1] (setting [7]) it was 4 µg/mL (≈ 16 µM); in the assay on N. gonorrhoeae [1] (setting [8]), 8 µg/mL (≈ 32 µM).
With `NS(=O)(=O)c1nnc(NC(=O)c2ccccc2)s1` [CAI 0012], the MIC with N. gonorrhoeae [1] (setting [3]) is 2 µg/mL (≈ 7.03 µM); against N. gonorrhoeae [1] (setting [4]), 16 µg/mL (≈ 56.3 µM); against N. gonorrhoeae [1] (setting [5]) it was 4 µg/mL (≈ 14.1 µM); against N. gonorrhoeae [1] (setting [6]), more than 64 µg/mL; in the assay with N. gonorrhoeae [1] (setting [7]), 2 µg/mL (≈ 7.03 µM); against N. gonorrhoeae [1] (setting [8]) it was 64 µg/mL (≈ 225 µM).
